Source: PMC7277860, “Viridistratins A−C, Antimicrobial and Cytotoxic Benzo[j]fluoranthenes from Stromata of Annulohypoxylon viridistratum (Hypoxylaceae, Ascomycota)” (Biomolecules, 2020)
Converted amounts (≈) assume the structure as drawn. Where two headings read alike, the source gives them in different places.

Experiments:
Assay type in all cases: cell-based
L929 (mouse fibroblasts) = assay: Cytotoxicity assay (MTT); settings: 5 days
Method: (§1) Compounds 1−5 were dissolved as described in the previous section. The cytotoxicity assay was initially performed against the cell lines L929 (mouse fibroblasts), as well as KB 3.1 (human papillomavirus-related endocervical adenocarcinoma), as described previously. A detailed protocol, as well as sources of the cell lines, is given in the Supporting Information.
(§2) After incubating the cell lines with a serial dilution of the test compounds (final range: 37 to 0.6 × 10^−3 µg/mL) for five days, the cells were dyed using 3-(4,5-dimethyl-2-thiazolyl)-2,5-diphenyl-2H-tetrazolium bromide (MTT), which is only converted to its purple formazan derivative by living cells. Then, the intensity of the purple derivative in relation to cells without additive (set to 100% viability) for each concentration of a test compound was quantified. For this, the absorption at 595 nm was measured using a microplate reader to calculate the percentage of cell viability. From this, the half-maximum inhibitory concentration (IC50, in µM) was calculated.
(§3) Protocol: Cytotoxicity Assay
(§4) The ass ay w as co nducted i n 9 6-well flat-bottom mi crotiter plates using the parameters summarised i n Tabl e S 2 and as described in [S2].
(§5) Cell lines L929 and KB 3.1 were incubated at 37 °C under 10 % CO2 in Gibco™ DMEM medium (Thermo Fisher Scientific, Waltham, MA, USA) supplemented with 10 % FBS. A microtiter plate was filled with 120 µL of this suspension (50,000/mL) in each well.
(§6) Seperately, another microtiter plate was filled with 100 µL of growth medium in each well. Then, 50 µL of the test compound sol utions (1 mg/mL) were given to wells of the first column in two replicates (one compound per row). C ell s wi thout addi ti ves, Me O H, and MeOH: DMSO 9+1 were used as negative controls. Starting from the first column, 50 µL of the solutions were gradually transferred to the ne xt col umn, the conte nts thoroughl y mi xed, and 50 µ L transferred to the following column. This created a serial dilution of the test compounds r anging from 333 µg/mL to 1.9 ×10−3 µg/mL. The remai ni ng 50 µL after column twelve were discarded. From this microtiter plate, 60 µL of the sol utions from 111 µg/ mL to 1.9×10−3 µg/mL were given to the first plate containing 120 µL of the cel l suspens i ons (i.e. the hi ghest concentrati on 333 µg/mL was not used). T his resulted i n fi nal compound concent rati ons rangi ng from […]
(§7) After 5 days of incubation under the aforeme ntioned i ncubati on condi ti ons, the half maximum inhibitory concentrati ons (IC 50) were determined using a colorimetric tetrazolium dye MTT assay [S3].
(§8) For this, 20 µL of a 5 mg/mL solution of 3-( 4 ,5 -dimethyl-2-thi azo l yl)-2 ,5 -di phenyl -2H-tetrazolium bromide (MTT) w ere added to each well and incubated for two hours at 37 °C. Then, the microtiter plate was centrifuged (3,000 r p m, 5 mi n) and the supernat ant remo ved by ho l di ng the pl ate upsi de-do wn and gentle shaking. Afterwards, the wells were washed using 100 µL of phosph ate buffered saline (PBS).
(§9) The plate was again centrifuged and the supernatant removed as described before. Then, 100 µL of an isopropanol:HCl solution (1L i sopropanol+4 mL HCl 37 % w/v) were added to the wells. After i ncubati ng fo r 10 mi n at ambi ent te mperature, the a bso r pti o n of the well s at 595 nm was measured wi th an I nfi ni te ® 200 Pro microplate reader (TECAN, Männedorf, Schweiz).
(§10) The absorption values of the cells without additives were averaged and set to 100 % cell viability.
(§11) Then, t he me ans of absorption of the two compound replicates were set in relation to the blank media.
(§12) These percentage values were plotted a gainst the concentration range (37 µg/mL to 0.6×10 −3 µg/mL).
(§13) The IC50 val ue w as read from the plot ( i n µg/mL) and the uni ts conversed to µM.
(§14) If effects were observed wi th cell lines L929 and KB 3.1 (IC50 < 50 µM), the other cell lines were tested using the same protocol.
(§15) Table S2: Cytotoxicity assay experiment parameters cell line type No. growth medium […]

Cytotoxicity assay (MTT) = settings: for IC50: 5 days
Method: as §1, §2, §3, §4, §5, §6, §7, §8, §9, §10, §11, §12, §13, §14, §15

[1] = test system: A549 (human lung carcinoma); assay: Cytotoxicity assay (MTT); settings: Homo sapiens, 120 h, A549, 5 days, value in µg/mL, read-out: half-maximum inhibitory concentration (IC50)
Method: as §1, §2
(§16) If an inhibition of cell viability with an IC50 < 50 µM was observed, further cell lines were subjected to the test compounds: PC-3 (human prostate adenocarcinoma), SK-OV-3 (human ovary adenocarcinoma), MCF-7 (human breast adenocarcinoma), A431 (human squamous carcinoma) and A549 (human lung carcinoma).
as §3, §4, §5, §6, §7, §8, §9, §10, §11
(§17) These percentage values were plotted a gainst the concentration range (37 µg/mL to 0.6×10 −3 µg/mL). […]

[2] = test system: A431 (human squamous carcinoma); assay: Cytotoxicity assay (MTT); settings: Homo sapiens, A-431, 120 h, A431, 5 days, value in µg/mL, read-out: half-maximum inhibitory concentration (IC50)
Method: as §1, §2, §16, §3, §4, §5, §6, §7, §8, §9, §10, §11, §17

[3] = test system: KB 3.1 (human endocervical adenocarcinoma); assay: Cytotoxicity assay (MTT); settings: 5 days
Method: as §1, §2, §3, §4, §5, §6, §7, §8, §9, §10, §11, §12, §13, §14, §15

[4] = human, KB 3.1 human endocervical adenocarcinoma cells
[5] = mouse, L929 mouse fibroblast cells, L929 mouse fibroblasts

Oc1cccc2c3c(ccc12)-c1ccc(O)c2c(O)ccc-3c12 [Compound 1, viridistratin A]
IC50 (L929 (mouse fibroblasts); Mus musculus, L929, 120 h, value in µg/mL, read-out: half-maximum inhibitory concentration (IC50)): 8.5 µg/mL | IC50 at 5 days (Cytotoxicity assay (MTT); [4]): 28.3 µM | IC50 at 5 days (Cytotoxicity assay (MTT); [5]): 12.7 µM

COc1cccc2c3c(ccc12)-c1ccc(O)c2c(O)ccc-3c12 [Compound 2, viridistratin B]
IC50 at 5 days (Cytotoxicity assay (MTT); [4]): 17.2 µM | IC50 at 5 days (Cytotoxicity assay (MTT); [5]): 17.2 µM | IC50 [1]: 0.45 µg/mL (≈ 1.43 µM) | IC50 [2]: 0.34 µg/mL (≈ 1.08 µM)

COc1cccc2c3c(ccc12)-c1ccc(O)c2c(OC)ccc-3c12 [Compound 3, viridistratin C]
IC50 (L929 (mouse fibroblasts); read-out: Cytotoxicity (IC50)): 61 µM | IC50 at 5 days (Cytotoxicity assay (MTT); [4]): > 50 µM | IC50 at 5 days (Cytotoxicity assay (MTT); [5]): > 50 µM | IC50 [3]: 85.4 µM

O=C1C[C@H]2C(=C3CCC(=O)c4c(O)ccc2c43)c2cccc(O)c21 [Compound 4, truncatone A]
IC50 (L929 (mouse fibroblasts); 120 h, value in µg/mL, read-out: half-maximum inhibitory concentration (IC50)): 3.3 µg/mL | IC50 (Cytotoxicity assay (MTT); KB 3.1 human endocervical adenocarcinoma): 44 µM | IC50 (Cytotoxicity assay (MTT); L929 mouse fibroblasts): 10.4 µM

O=C1CCC(=O)c2c1c(O)cc1c2-c2ccc(O)c3c(O)ccc-1c23 [Compound 5, truncatone C]
IC50 at 5 days (Cytotoxicity assay (MTT); [4]): 30.1 µM | IC50 at 5 days (Cytotoxicity assay (MTT); [5]): 16.3 µM
